Values quoted from earlier work as cited in patent US7235236B2, “Polynucleotide encoding human adenylylcyclase VI and uses thereof for enhancing cardiac function” (priority 1995, dated 2007).

Tested on: GRK
Settings: chronic reduction of beta1-AR activation

CC(C)NCC(O)COc1ccc(COCCOC(C)C)cc1 (stereo not shown) [bisoprolol]
GRK activity after chronic treatment: downregulation of GRK activity
